Experimental data: article PMC8566451, “Lead optimization of novel quinolone chalcone compounds by a structure–activity relationship (SAR) study to increase efficacy and metabolic stability” (Scientific Reports, 2021)

Experiments:
HeLa cells = test: Combination of CTR-21 with ABT-737, combinatorial index; assay type: cell-based, human
Method: (§1) (a) CTR-21 kills HeLa in a synergistic manner with ABT-737. Cells were treated with 0.78 nM CTR-21 and indicated concentrations of ABT-737. CI denotes combinatorial index, calculated according to described previously. (b) CTR-21 effectively kills paclitaxel-resistant cells when combined with paclitaxel. The paclitaxel-resistant MDA-MB-231TaxR cells were treated with 23 nM of CTR-21 and indicated concentrations of paclitaxel. TEXT PRINTED IN THE PICTURE: (a) Combo: HeLa: CI: 0.93 (ABT-737 (12.5 μM); CTR-21 (0.78 nM)); HeLa: CI: 0.94 (ABT-737 (6.25 μM); CTR-21 (0.78 nM)); HeLa: CI: 0.81 (ABT-737 (3.125 μM); CTR-21 (0.78 nM)); HeLa: CI: 0.48 (ABT-737 (1.5625 μM); CTR-21 (0.78 nM)) | (b) Combo: MDA-MB-231-TaxR: CI: 0.56 (Paclitaxel (75 nM); CTR-21 (23 nM)); MDA-MB-231-TaxR: CI: 0.38 (Paclitaxel (37.5 nM); CTR-21 (23 nM)); MDA-MB-231-TaxR: CI: 0.35 (Paclitaxel (18.75 nM); CTR-21 (23 nM)) DOUBTS OF THE COPYIST ABOUT THIS PICTURE: Each CI value is printed over a group of three bars (the two single agents and Combo). It is assigned here to the Combo, with the concentrations of the two agents given as conditions.

MDA-MB-231TaxR cells = test: Combination of CTR-21 with paclitaxel, combinatorial index; assay type: cell-based, human; conditions: paclitaxel 18.75 nM + CTR-21 23 nM
Method: as §1

## COc1ccccc1C(=O)/C=C/c1cc2cccc(OC)c2[nH]c1=O [CTR-21, (E)-8-methoxy-3-(3-(2-methoxyphenyl)-3-oxoprop-1-enyl) quinolin-2(1H)-one]
HeLa cells; ABT-737 1.5625 μM + CTR-21 0.78 nM
  CI (combinatorial index): 0.48
HeLa cells; CTR-21 0.78 nM with low doses of ABT-737
  combination index (CI): less than 1.0
MDA-MB-231TaxR cells
  CI (combinatorial index): 0.35
